Results: ChEMBL document CHEMBL4480376, “Studies on spiro[4.5]decanone prolyl hydroxylase domain inhibitors” (Medchemcomm, 2019)
Active and inactive are the calls of the source. No cut-off for these calls is given here.

Experiments:
[1] = molecular target: Egl nine homolog 1 (Homo sapiens) (UniProt Q9GZT9); test: Inhibition of N-terminal His6-tagged truncated PHD2 (181 to 426 residues) (unknown origin) expressed in Escherichia coli BL21 DE3 using H1F1-alpha CODD as substrate preincubated for 15 mins followed by substrate addition and measured after 15 mins by mass spectrometry
[2] = molecular target: Egl nine homolog 1 (Homo sapiens) (UniProt Q9GZT9); test: Inhibition of N-terminal His6-tagged truncated PHD2 (181 to 426 residues) (unknown origin) expressed in Escherichia coli BL21 DE3 using H1F1-alpha NODD as substrate preincubated for 15 mins followed by substrate addition and measured after 15 mins by mass spectrometry
[3] = molecular target: T1, Lysine-specific demethylase 4A (Homo sapiens, UniProt O75164); test: Inhibition of KDM4A (unknown origin) using H3 K9Me3 (1 to 15 residues) as substrate
T1 sequence (O75164 whole entry): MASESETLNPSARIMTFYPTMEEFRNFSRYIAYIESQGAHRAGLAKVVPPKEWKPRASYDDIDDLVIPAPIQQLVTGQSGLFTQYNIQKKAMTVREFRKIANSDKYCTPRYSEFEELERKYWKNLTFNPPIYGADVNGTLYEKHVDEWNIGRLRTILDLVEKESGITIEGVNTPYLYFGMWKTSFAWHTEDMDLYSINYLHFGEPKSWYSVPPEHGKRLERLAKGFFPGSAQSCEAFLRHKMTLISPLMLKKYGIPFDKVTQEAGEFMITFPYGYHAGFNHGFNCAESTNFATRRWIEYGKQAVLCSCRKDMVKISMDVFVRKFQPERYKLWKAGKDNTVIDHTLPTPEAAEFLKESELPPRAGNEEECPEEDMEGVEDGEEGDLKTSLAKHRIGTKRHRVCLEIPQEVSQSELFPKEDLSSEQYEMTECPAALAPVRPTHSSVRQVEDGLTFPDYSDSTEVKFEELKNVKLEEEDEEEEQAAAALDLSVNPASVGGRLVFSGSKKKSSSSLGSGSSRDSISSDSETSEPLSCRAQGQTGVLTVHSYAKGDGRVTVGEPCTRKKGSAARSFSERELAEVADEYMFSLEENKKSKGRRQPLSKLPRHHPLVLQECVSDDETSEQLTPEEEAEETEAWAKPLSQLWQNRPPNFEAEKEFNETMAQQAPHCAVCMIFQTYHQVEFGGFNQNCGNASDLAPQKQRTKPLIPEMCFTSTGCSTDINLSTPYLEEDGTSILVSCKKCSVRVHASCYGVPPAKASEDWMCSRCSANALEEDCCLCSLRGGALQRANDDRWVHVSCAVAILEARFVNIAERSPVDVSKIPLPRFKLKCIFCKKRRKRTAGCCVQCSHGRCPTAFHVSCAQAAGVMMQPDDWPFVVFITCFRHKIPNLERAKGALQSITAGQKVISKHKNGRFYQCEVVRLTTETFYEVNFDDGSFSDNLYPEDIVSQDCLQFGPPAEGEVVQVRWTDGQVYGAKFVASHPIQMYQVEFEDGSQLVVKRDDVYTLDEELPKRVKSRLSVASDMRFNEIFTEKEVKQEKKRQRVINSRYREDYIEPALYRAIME

[4] = Inhibition of FIH (unknown origin) using HIF-1alpha CAD (D788 to L822 residues) as substrate; set-up: species or system Homo sapiens

Sequence of Egl nine homolog 1 (Homo sapiens) (Q9GZT9 2-426 limits assumed): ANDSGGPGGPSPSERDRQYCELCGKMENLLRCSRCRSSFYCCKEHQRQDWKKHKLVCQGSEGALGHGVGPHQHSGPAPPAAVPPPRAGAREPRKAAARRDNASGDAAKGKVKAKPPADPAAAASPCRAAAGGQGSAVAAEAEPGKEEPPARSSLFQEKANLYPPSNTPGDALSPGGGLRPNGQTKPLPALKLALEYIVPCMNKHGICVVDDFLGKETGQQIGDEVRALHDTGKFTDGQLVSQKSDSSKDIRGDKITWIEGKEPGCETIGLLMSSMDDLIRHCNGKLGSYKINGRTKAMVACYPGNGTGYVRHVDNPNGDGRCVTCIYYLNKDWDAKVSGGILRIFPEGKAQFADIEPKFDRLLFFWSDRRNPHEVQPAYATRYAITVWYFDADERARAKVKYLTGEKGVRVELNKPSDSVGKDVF

| SMILES | inhibition [1] | inhibition [2] | IC50 [3] | IC50 [4] |
| --- | --- | --- | --- | --- |
| O=C(Nc1ccc(-c2ccccc2)cc1)C1CCCN(Cc2ccccc2O)C1 (centres undefined) | inactive | inactive |  |  |
| Cc1cccnc1CN1CCC2(CC1)NC(=O)N(c1ccc(-c3ccccc3)cc1)C2=O |  |  | > 25 µM | > 25 µM |
| Cc1cccnc1CN1CCC2(CC1)C(=O)N(c1ccc(-c3ccccc3)cc1)C(=O)N2c1ncccn1 |  |  |  | > 25 µM |
| Cc1cccnc1CN1CCC(C(=O)NCc2ccc(-c3ccccc3)cc2)CC1 | inactive | inactive |  |  |
| O=C1N(c2ccc(-c3ccccc3)cc2)C(=O)C2(CCNCC2)N1c1ncccn1 |  |  | > 25 µM | > 25 µM |
| Cn1ccnc1CN1CCC2(CC1)C(=O)N(c1ccc(-c3ccccc3)cc1)C(=O)N2c1ncccn1 |  |  | > 25 µM | > 25 µM |
| O=C1N(c2ccc(-c3ccccc3)cc2)C(=O)C2(CCN(Cc3cccs3)CC2)N1c1ncccn1 |  |  | > 25 µM | > 25 µM |
| Cc1cccnc1CN1CCC2(CC1)C(=O)N(c1ccc(-c3ccccc3)cc1)C(=O)N2c1cc(C(=O)O)ccn1 |  |  | > 25 µM | > 25 µM |
| Cc1cccnc1CN1CCCC(C(=O)Nc2ccc(-c3ccccc3)cc2)C1 (centres undefined) | inactive | inactive |  |  |
| O=C(NCc1ccc(-c2ccccc2)cc1)C1CCN(Cc2ncccc2O)CC1 | inactive | inactive |  |  |
| O=C1N(c2ccc(-c3ccccc3)cc2)C(=O)C2(CCN(Cc3ccccc3O)CC2)N1c1ncccn1 |  |  | 12.3 µM | > 25 µM |
| O=C(NCc1ccc(-c2ccccc2)cc1)C1CCN(Cc2ccccc2O)CC1 | inactive | inactive |  |  |
| COc1ccnc(N2C(=O)N(c3ccc(-c4ccccc4)cc3)C(=O)C23CCN(Cc2ncccc2C)CC3)n1 |  |  | > 25 µM | 21.6 µM |
| COc1cccc(CN2CCC3(CC2)C(=O)N(c2ccc(-c4ccccc4)cc2)C(=O)N3c2ncccn2)n1 |  |  | > 25 µM | > 25 µM |
| O=C(Nc1ccc(-c2ccccc2)cc1)C1CCN(Cc2ccccc2O)CC1 | inactive | inactive |  |  |
| Cc1cccnc1CN1CCC(C(=O)Nc2ccc(-c3ccccc3)cc2)CC1 | inactive | inactive |  |  |
| O=C1N(c2ccc(-c3ccccc3)cc2)C(=O)C2(CCN(Cc3ncc[nH]3)CC2)N1c1ncccn1 |  |  | > 25 µM | > 25 µM |
| O=C(Nc1ccc(-c2ccccc2)cc1)C1CCN(Cc2ncccc2O)CC1 | inactive | inactive |  |  |
| Cn1ccnc1CN1CCC2(CC1)NC(=O)N(c1ccc(-c3ccccc3)cc1)C2=O |  |  | > 25 µM | > 25 µM |
| O=C(Nc1ccc(-c2ccccc2)cc1)C1CCCN(Cc2ncccc2O)C1 (centres undefined) | inactive | inactive |  |  |
